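Results reflect a 48-hour exposure of cells in 96-well plates to compound at five concentrations. GI50 is the concentration that inhibits growth by half.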 Active and inactive are the calls of the source. No stated cut-off is given here; in the data, active = GI50 up to about 1.1 µM and inactive = higher.
What was measured:
Assay in all cases: NCI anticancer screen, dose series, 48 h
HCT-116 = test system: HCT-116
DMS-114 = test system: DMS-114
SF-295 = test system: SF-295
SK-MEL-28 = test system: SK-MEL-28
786-0 = test system: 786-0
HOP-62 = test system: HOP-62
SK-MEL-5 = test system: SK-MEL-5
HOP-18 = test system: HOP-18
A498 = test system: A498
MOLT-4 = test system: MOLT-4
CAKI-1 = test system: CAKI-1
Malme-3M = test system: Malme-3M
DLD-1 = test system: DLD-1
K562 = test system: K562
KM12 = test system: KM12
LXFL 529 = test system: LXFL 529
HCC 2998 = test system: HCC 2998
SNB-19 = test system: SNB-19
SF-539 = test system: SF-539
UACC-62 = test system: UACC-62
M19-MEL = test system: M19-MEL
OVCAR-3 = test system: OVCAR-3
OVCAR-8 = test system: OVCAR-8
IGROV-1 = test system: IGROV-1
NCI-H23 = test system: NCI-H23
A549 = test system: A549
DMS-273 = test system: DMS-273
CCRF-CEM = test system: CCRF-CEM
NCI-H226 = test system: NCI-H226
UO-31 = test system: UO-31
HOP-92 = test system: HOP-92
SNB-78 = test system: SNB-78
SW-620 = test system: SW-620
ACHN = test system: ACHN
U-251 = test system: U-251
EKVX = test system: EKVX
SK-OV-3 = test system: SK-OV-3
KM-20L2 = test system: KM-20L2
OVCAR-5 = test system: OVCAR-5
HT-29 = test system: HT-29
SN12C = test system: SN12C
HCT-15 = test system: HCT-15
UACC-257 = test system: UACC-257
OVCAR-4 = test system: OVCAR-4
HL-60 = test system: HL-60
RPMI-8226 = test system: RPMI-8226
COLO 205 = test system: COLO 205
TK-10 = test system: TK-10
SF-268 = test system: SF-268
M14 = test system: M14
SNB-75 = test system: SNB-75
NCI-H460 = test system: NCI-H460
NCI-H522 = test system: NCI-H522
SR = test system: SR
MCF7 = test system: MCF7
PC-3 = test system: PC-3
NCI/ADR-RES = test system: NCI/ADR-RES
MDA-N = test system: MDA-N
LOX IMVI = test system: LOX IMVI
RXF 393 = test system: RXF 393
Hs-578T = test system: Hs-578T
T47D = test system: T47D
MDA-MB-435 = test system: MDA-MB-435
BT-549 = test system: BT-549
SK-MEL-2 = test system: SK-MEL-2
DU-145 = test system: DU-145
MDA-MB-231 = test system: MDA-MB-231

Measured: GI50

O=C(/C=C/c1ccccc1Cl)c1ccccc1Cl
14.8 µM: HCT-15
inactive: HCT-116 14.6 µM | DMS-114 19.9 µM | SF-295 22.6 µM | SK-MEL-28 19.1 µM | 786-0 15.2 µM | HOP-62 47.8 µM | SK-MEL-5 31.6 µM | HOP-18 28.1 µM | A498 49.1 µM | MOLT-4 23.8 µM | CAKI-1 17.6 µM | Malme-3M 31.8 µM | DLD-1 17.5 µM | K562 21 µM | KM12 15.5 µM | LXFL 529 17.2 µM | HCC 2998 21.6 µM | SNB-19 15.7 µM | SF-539 17.6 µM | UACC-62 16.7 µM | M19-MEL 25.8 µM | OVCAR-3 18.9 µM | OVCAR-8 17.3 µM | IGROV-1 17.3 µM | NCI-H23 21.2 µM | A549 30 µM | DMS-273 16.9 µM | CCRF-CEM 20.4 µM | NCI-H226 45.9 µM | UO-31 15.9 µM | HOP-92 17.1 µM | SNB-78 22.4 µM | SW-620 12.6 µM | ACHN 17.3 µM | U-251 16.3 µM | EKVX 22.4 µM | SK-OV-3 72.6 µM | KM-20L2 18.1 µM | OVCAR-5 21.1 µM | HT-29 18.8 µM | SN12C 20.6 µM | UACC-257 19.8 µM | OVCAR-4 20.7 µM | HL-60 22.4 µM | RPMI-8226 16 µM | COLO 205 21.4 µM | TK-10 37.5 µM | SF-268 23.4 µM | M14 22.3 µM | SNB-75 30.3 µM | NCI-H460 19.2 µM | NCI-H522 19 µM

COc1cc2c(cc1OC)C(SC)C(=O)N(Cc1cccc(OC)c1OC)CC2 (stereo not given)
active: DMS-114 0.621 µM | SF-295 0.63 µM | SK-MEL-5 0.703 µM | SR 912 nM | MCF7 746 nM | K562 0.501 µM | UACC-62 0.731 µM | OVCAR-3 0.798 µM | MDA-N 297 nM | DMS-273 0.553 µM | HOP-92 0.861 µM | SNB-78 0.359 µM | MDA-MB-435 353 nM | BT-549 755 nM | HT-29 1.03 µM | HL-60 0.411 µM | NCI-H460 1.09 µM | NCI-H522 0.64 µM
0.718 µM: HCT-15
inactive: HCT-116 1.92 µM | SK-MEL-28 1.99 µM | 786-0 3.85 µM | HOP-62 2.75 µM | HOP-18 1.49 µM | A498 2.03 µM | MOLT-4 2.33 µM | CAKI-1 13.6 µM | Malme-3M 3.15 µM | DLD-1 2.01 µM | KM12 2.65 µM | LXFL 529 2.84 µM | HCC 2998 2.46 µM | SNB-19 8.75 µM | SF-539 1.22 µM | PC-3 1.28 µM | NCI/ADR-RES 2.73 µM | M19-MEL 1.2 µM | OVCAR-8 4.29 µM | IGROV-1 2.77 µM | NCI-H23 2.25 µM | LOX IMVI 2.1 µM | RXF 393 1.79 µM | Hs-578T 2.66 µM | A549 1.73 µM | T47D 4.13 µM | CCRF-CEM 3.61 µM | NCI-H226 3.21 µM | UO-31 6.47 µM | SW-620 1.49 µM | ACHN 5.04 µM | U-251 2.02 µM | EKVX 4.7 µM | SK-OV-3 2.54 µM | KM-20L2 1.19 µM | OVCAR-5 14.9 µM | SK-MEL-2 1.26 µM | SN12C 5.61 µM | DU-145 2.51 µM | UACC-257 2.95 µM | OVCAR-4 17.5 µM | RPMI-8226 3.61 µM | COLO 205 2.74 µM | TK-10 5.62 µM | SF-268 4.67 µM | MDA-MB-231 5.48 µM | M14 2.28 µM | SNB-75 3.3 µM
